Assay results published in ChEMBL document CHEMBL2429812, “Exploring multitarget interactions to reduce opiate withdrawal syndrome and psychiatric comorbidity” (ACS Med Chem Lett, 2013).
Active and inactive are the calls of the source. No cut-off for these calls is given here.

Columns and labels:
[1] = system: Mus musculus; experiment: Antidepressant-like activity in mouse assessed as reduction in immobility time at 0.05 mg/kg, ip by forced swimming test; assay type: functional, organism-based; parameters: dose 0.05 mg/kg
[2] = target: T1, Alpha-2C adrenergic receptor (Homo sapiens) (UniProt P18825); experiment: Agonist activity at human alpha2C AR assessed as intrinsic activity
T1 sequence (whole entry): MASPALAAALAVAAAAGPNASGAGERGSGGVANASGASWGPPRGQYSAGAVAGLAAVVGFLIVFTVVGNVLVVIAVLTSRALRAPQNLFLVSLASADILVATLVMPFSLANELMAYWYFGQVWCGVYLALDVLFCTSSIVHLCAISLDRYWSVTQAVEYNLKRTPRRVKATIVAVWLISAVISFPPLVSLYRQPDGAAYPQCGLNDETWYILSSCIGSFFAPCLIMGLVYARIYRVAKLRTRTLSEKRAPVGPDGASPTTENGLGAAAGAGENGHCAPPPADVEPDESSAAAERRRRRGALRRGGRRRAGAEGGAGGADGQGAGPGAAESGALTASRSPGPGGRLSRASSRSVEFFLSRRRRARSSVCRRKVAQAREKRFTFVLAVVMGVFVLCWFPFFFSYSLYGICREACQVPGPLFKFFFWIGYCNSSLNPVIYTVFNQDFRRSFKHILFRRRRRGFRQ

[3] = Binding affinity to I2 imidazoline binding site in rat brain membrane; assay type: cell membranes
[4] = target: T2, 5-hydroxytryptamine receptor 1A (Homo sapiens) (UniProt P08908); experiment: Agonist activity at human 5HT1A receptor
T2 sequence (whole entry): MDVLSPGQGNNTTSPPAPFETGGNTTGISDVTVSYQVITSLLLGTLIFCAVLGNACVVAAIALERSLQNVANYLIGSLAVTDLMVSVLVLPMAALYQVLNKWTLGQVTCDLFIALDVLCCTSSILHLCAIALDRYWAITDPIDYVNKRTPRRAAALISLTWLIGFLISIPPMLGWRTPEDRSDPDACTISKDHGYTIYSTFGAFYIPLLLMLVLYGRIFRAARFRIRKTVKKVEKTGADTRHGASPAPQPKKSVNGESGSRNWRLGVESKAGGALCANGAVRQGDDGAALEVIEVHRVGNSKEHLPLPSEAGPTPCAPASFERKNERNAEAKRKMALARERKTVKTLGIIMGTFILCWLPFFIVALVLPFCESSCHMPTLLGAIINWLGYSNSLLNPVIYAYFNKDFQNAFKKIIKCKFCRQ

[5] = target: T3, Alpha-2A adrenergic receptor (Homo sapiens) (UniProt P08913); experiment: Antagonist activity at human alpha2A AR
T3 sequence (whole entry): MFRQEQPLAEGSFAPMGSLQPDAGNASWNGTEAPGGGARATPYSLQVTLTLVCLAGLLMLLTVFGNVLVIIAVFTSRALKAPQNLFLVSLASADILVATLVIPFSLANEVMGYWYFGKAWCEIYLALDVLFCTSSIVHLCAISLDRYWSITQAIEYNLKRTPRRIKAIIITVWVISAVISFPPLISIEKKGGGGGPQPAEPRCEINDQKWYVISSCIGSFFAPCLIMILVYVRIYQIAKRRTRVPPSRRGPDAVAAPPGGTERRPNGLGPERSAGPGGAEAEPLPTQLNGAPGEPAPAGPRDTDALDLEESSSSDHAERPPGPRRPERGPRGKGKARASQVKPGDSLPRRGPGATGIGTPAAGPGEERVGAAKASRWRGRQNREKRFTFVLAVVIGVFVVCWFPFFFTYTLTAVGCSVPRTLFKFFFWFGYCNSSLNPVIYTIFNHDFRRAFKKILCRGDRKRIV

[6] = target: T4, Alpha-2B adrenergic receptor (Homo sapiens) (UniProt P18089)
T4 sequence (whole entry): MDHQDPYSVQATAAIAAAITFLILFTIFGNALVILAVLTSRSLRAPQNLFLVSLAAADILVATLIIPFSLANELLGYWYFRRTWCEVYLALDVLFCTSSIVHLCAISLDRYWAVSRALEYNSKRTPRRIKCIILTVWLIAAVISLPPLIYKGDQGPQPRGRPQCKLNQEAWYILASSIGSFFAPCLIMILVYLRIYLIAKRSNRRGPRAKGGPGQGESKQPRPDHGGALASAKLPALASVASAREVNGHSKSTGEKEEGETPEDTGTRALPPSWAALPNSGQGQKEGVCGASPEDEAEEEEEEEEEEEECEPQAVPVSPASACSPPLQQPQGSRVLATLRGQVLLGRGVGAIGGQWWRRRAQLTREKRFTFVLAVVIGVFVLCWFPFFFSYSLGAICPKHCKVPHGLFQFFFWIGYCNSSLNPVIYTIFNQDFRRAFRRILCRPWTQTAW

[7] = target: T2, 5-hydroxytryptamine receptor 1A (Homo sapiens); experiment: Agonist activity at human 5HT1A receptor assessed as intrinsic activity
[8] = target: T5, 5-hydroxytryptamine receptor 1A (Homo sapiens, UniProt P08908); experiment: Binding affinity at human 5HT1A receptor
T5 sequence (P08908 whole entry): T2 sequence (whole entry)

[9] = target: T6, Alpha-2C adrenergic receptor (Homo sapiens, UniProt P18825); experiment: Binding affinity at human alpha2C AR
T6 sequence (P18825 whole entry): T1 sequence (whole entry)

[10] = target: T7, Alpha-2B adrenergic receptor (Homo sapiens, UniProt P18089); experiment: Binding affinity at human alpha2B AR
T7 sequence (P18089 whole entry): T4 sequence (whole entry)

[11] = target: T8, Alpha-2A adrenergic receptor (Homo sapiens, UniProt P08913); experiment: Binding affinity at human alpha2A AR
T8 sequence (P08913 whole entry): T3 sequence (whole entry)

[12] = target: T6, Alpha-2C adrenergic receptor; experiment: Agonist activity at human alpha2C AR
[13] = target: T7, Alpha-2B adrenergic receptor; experiment: Agonist activity at human alpha2B AR
[14] = system: Mus musculus; experiment: Antidepressant-like activity in mouse assessed as reduction in immobility time at 10 mg/kg, ip by forced swimming test; assay type: functional, organism-based; parameters: dose 10 mg/kg
[15] = target: T4, Alpha-2B adrenergic receptor (Homo sapiens); experiment: Agonist activity at human alpha2B AR assessed as intrinsic activity
[16] = target: T2, 5-hydroxytryptamine receptor 1A (Homo sapiens); experiment: Agonist activity at human 5HT1A receptor relative to control
[17] = system: Mus musculus; experiment: Antidepressant-like activity in mouse assessed as reduction in immobility time at 20 mg/kg, ip by forced swimming test; assay type: functional, organism-based; parameters: dose 20 mg/kg
[18] = system: Mus musculus; experiment: Antidepressant-like activity in mouse assessed as reduction in immobility time at 0.025 mg/kg, ip by forced swimming test; assay type: functional, organism-based; parameters: dose 0.025 mg/kg
[19] = system: Mus musculus; experiment: Reduction in morphine dependence expression in ip dosed mouse assessed as dosed required for decrease in expression of naloxone-precipitated withdrawal syndrome; assay type: functional
[20] = system: Mus musculus; experiment: Reduction in morphine dependence expression in mouse assessed as decrease in expression of naloxone-precipitated withdrawal syndrome measuring jumping at 5 mg/kg, ip; assay type: functional; parameters: scale not given: the % may be the effect or the level left; conditions: route intraperitoneal
[21] = system: Mus musculus; experiment: Reduction in morphine dependence expression in mouse assessed as decrease in expression of naloxone-precipitated withdrawal syndrome measuring somatic signs at 5 mg/kg, ip; assay type: functional; parameters: scale not given: the % may be the effect or the level left; conditions: route intraperitoneal
[22] = system: Mus musculus; experiment: Antidepressant-like activity in mouse assessed as reduction in immobility time at 5 mg/kg, ip by forced swimming test in presence of idazoxan; assay type: functional, organism-based; parameters: dose 5 mg/kg
[23] = system: Mus musculus; experiment: Antidepressant-like activity in mouse assessed as reduction in immobility time at 5 mg/kg, ip by forced swimming test in presence of WAY 100635; assay type: functional, organism-based; parameters: dose 5 mg/kg
[24] = system: Mus musculus; experiment: Antidepressant-like activity in mouse assessed as reduction in immobility time at 1 to 20 mg/kg, ip by forced swimming test; assay type: functional, organism-based
[25] = system: Mus musculus; experiment: Antidepressant-like activity in mouse assessed as reduction in immobility time at 5 mg/kg, ip by forced swimming test; assay type: functional; parameters: scale not given: the % may be the effect or the level left; conditions: route intraperitoneal
[26] = system: Mus musculus; experiment: Antidepressant-like activity in ip dosed mouse assessed as dosed required for reduction in immobility time by forced swimming test; assay type: functional

Row | Compound | Intrinsic activity [2] | pKi [3] | pD2 [4] | pKb [5] | Ki [8] [nM] | Ki [9] [nM] | Ki [10] [nM] | Ki [11] [nM] | Intrinsic activity [15] | other results
1 | C=CCc1ccccc1OC(C)C1=NCCN1 (centres undefined) [ALLYPHENYLINE] | 0.9 | < 6 | 6.86 | 7.4 |  |  |  |  |  | Activity [1]: Active; pEC50 [6]: inactive
2 | c1ccc(OCC2=NCCN2)c(CC2CC2)c1 |  | 6.9 |  | 6.35 | 83.2 | 631 | 501 | 77.6 |  | Intrinsic activity [7]: 0.8; EC50 [12]: 234 nM; EC50 [13]: 1700 nM
3 | c1ccc(OC2CC2)c(OCC2=NCCN2)c1 |  | < 6 |  | 6.22 | 79.4 | 794 | 794 | 316 |  | Intrinsic activity [7]: 1; EC50 [12]: 1000 nM; EC50 [13]: 3160 nM
4 | CCCc1ccccc1OCC1=NCCN1 |  | 8.25 |  | 6.28 | 79.4 | 490 | 550 | 49 |  | Intrinsic activity [7]: 0.9; Activity [14]: Active; EC50 [12]: 155 nM; EC50 [13]: 2510 nM
5 | CCCc1ccccc1OC(C)C1=NCCN1 (centres undefined) | 0.75 | < 6 | 7.08 | 7.05 | 13.8 | 148 | 537 | 50.1 | 0.6 | Emax [16]: 118%; EC50 [12]: 25.1 nM; EC50 [13]: 5010 nM
6 | CNCCC(Oc1ccc(C(F)(F)F)cc1)c1ccccc1 (centres undefined) |  |  |  |  |  |  |  |  |  | Activity [17]: Active
7 | CC(Oc1ccccc1Br)C1=NCCN1 (centres undefined) | 0.87 | < 6 |  | 7.04 | 148 |  |  |  | 0.4 | 
8 | C[C@@H](Oc1ccccc1C1CC1)C1=NCCN1 | 0.5 |  | < 5 | 6.9 |  |  |  |  |  | Activity [18]: inactive; pEC50 [6]: inactive
9 | c1ccc2oc(-c3ncc[nH]3)cc2c1 |  |  |  |  |  |  |  |  |  | Activity [19]: 20 mg/kg
10 | C=CCc1ccccc1OCC1=NCCN1 |  | 8.88 |  | 6.5 | 70.8 | 70.8 | 708 | 126 |  | Intrinsic activity [7]: 0.73; Activity [20]: >50%; Activity [21]: >50%; Activity [22]: inactive; Activity [23]: Active; Activity [24]: Active; Activity [25]: 50%; Activity [1]: inactive; EC50 [12]: 61.7 nM; EC50 [13]: 977 nM
11 | CC(Oc1ccccc1CC1CC1)C1=NCCN1 (centres undefined) [CYCLOMETHYLINE] | 0.8 | < 6 |  |  |  |  |  |  | 0.7 | Activity [1]: Active
12 | Brc1ccccc1OCC1=NCCN1 |  | 7.9 |  | 6.72 | 562 | 398 | 617 | 95.5 |  | Intrinsic activity [7]: 0.88; EC50 [12]: 97.7 nM; EC50 [13]: 1260 nM
13 | C[C@@H](Oc1ccccc1CC1CC1)C1=NCCN1 | 0.75 |  |  |  |  |  |  |  | 0.65 | 
14 | c1ccc(C2CC2)c(OCC2=NCCN2)c1 [CIRAZOLINE] |  | 8.35 |  | 6.4 | 34.7 |  |  |  |  | Intrinsic activity [7]: 0.8
15 | C[C@H](Oc1ccccc1CC1CC1)C1=NCCN1 | 0.85 |  |  |  |  |  |  |  | 0.7 | 
16 | C=CCc1ccccc1O[C@H](C)C1=NCCN1 | 0.5 |  | < 5 | 7.4 |  |  |  |  |  | pEC50 [6]: inactive
17 | C[C@H](Oc1ccccc1C1CC1)C1=NCCN1 | 0.9 |  | 7.86 | 7.7 | 6.03 |  |  |  | 0.65 | Activity [18]: Active; Emax [16]: 102%
18 | CC(Oc1ccccc1OC1CC1)C1=NCCN1 (centres undefined) | 0.7 | < 6 |  | 6.9 | 14.8 |  |  |  | 0.6 | 
19 | c1ccc2oc(C3=NCCN3)cc2c1 |  | 8.89 |  |  |  | 26900 | 26900 | 26900 |  | Activity [19]: 19 mg/kg; Activity [26]: 10 mg/kg
20 | C=CCc1ccccc1O[C@@H](C)C1=NCCN1 | 0.9 |  | 7.19 | 7.8 |  |  |  |  | 0.65 | 
21 | CC(Oc1ccccc1C1CC1)C1=NCCN1 (centres undefined) | 0.9 | < 6 | 7.24 | 7 | 7.24 |  |  |  | 0.7 | Activity [1]: Active; Emax [16]: 92%
